The source made the active and inactive calls. No cut-off for these calls is given here.
Tests used:
[1] = Binding affinity to T box antiterminator RNA AM1A by FRET
[2] = Induction of tRNA-UCCA binding to T box antiterminator RNA AM1A at 200 uM by FRET method
[3] = Binding affinity to T box antiterminator RNA

Kd [1]: 8 µM | Activity [2]: Active | Kd [3]: 8 µM
Compound: NC[C@@H]1O[C@H](O[C@H]2[C@@H](O)[C@H](O[C@@H]3[C@@H](O)[C@H](N)C[C@H](N)[C@H]3O[C@H]3O[C@H](CN)[C@@H](O)[C@H](O)[C@H]3N)O[C@@H]2CO)[C@H](N)[C@@H](O)[C@@H]1O [FRAMYCETIN]

— ChEMBL document CHEMBL1149873, “Identification of neomycin B-binding site in T box antiterminator model RNA” (Bioorg Med Chem, 2008)
